Laboratory results: US20240299373A1, “IMPROVED USE OF TRADIPITANT IN MOTION SICKNESS” (Vanda Pharmaceuticals Inc., priority 2023, published 2024)
Marks after values point to notes of the source that are not given here.

Columns and labels:
[1] = molecular target: T1, NK-1 receptor (Meriones unguiculatus, UniProt Q5DUB1); test: NK-1 agonist (GR73632, icv)-induced foot-tapping behavior in gerbils; format: in vivo; conditions: gerbil, 1 mg/kg
T1 construct: centrally acting NK-1 receptor antagonist in vivo in the gerbil; from tissue; host or cells: brain of living Mongolian gerbils
Method: Male Mongolian gerbils (Harlan Sprague Dawley, Indianapolis, IN) weighing 26 to 40 grams are administered the selective neurokinin-1 receptor agonist GR73632 (3 pmol) via direct, vertical, free-hand intracerebroventricular (icy) injection to a depth of 4.5 mm below bregma with a cuffed 27-gauge needle attached to a 50 μl Hamilton syringe. Immediately after injection, animals are placed individually into isolated chambers with pressure-sensitive velocimeter platform floors (San Diego Instruments acoustic startle apparatus) that detect and quantify vibration. The San Diego Instruments “SR” DOS-based computer program is used on a PC to record the number of foot-taps over the following 6 to 10 minutes, beginning 30 seconds after the floor is lightly tapped. […] The total number and average intensity of events over the duration is determined. Total number of taps is analyzed with one-way ANOVA and post-hoc Dunnett's test using JMP statistical software.
A dose-response curve (with doses of 0.3, 1, 3 and 10 pmols, icy) is initially generated with the NK-1 agonist GR73632.
NK-1 antagonists are tested for their ability to attenuate GR73632-induced foot tapping. NK-1 antagonists are administered (po) via oral feeding tube at doses and time points specified in each experiment. […]
NK-1 antagonists are administered at multiple doses (at least 3; one dose per animal) and response to GR73632 is measured. […]

[2] = test system: apomorphine-induced emesis; test: Emetic challenge study (apomorphine-induced emesis) in beagle dogs; format: in vivo, beagle dog; conditions: 3.0 mg/kg oral, apomorphine 0.1 mg/kg iv 2 hours later, five dogs; APO control 28
Method: Over the five (5) weeks of the study, each animal receives each of the treatments, but only one per week. The purpose of this study is to determine if tradipitant suppresses apomorphine-induced emesis.
The mid dose of tradipitant is the approximate half-log interval between the low and high doses.
All animals are dosed over a period of five (5) weeks, with each dog receiving one of five different treatments on each day of dosing.
All dogs are fasted overnight prior to each treatment day and then fed approximately one (1) hour after oral dosing (approximately one (1) hour prior to administration of apomorphine). Individual doses are adjusted weekly for changes in body weight.
The dose regimen consists of a 5×5 Latin square design, in which each subject receives 1 dose or dose combination per week (6 day washout) as shown in Table 3 below.

[3] = test system: vomiting due to motion sickness; conditions: crossover study; cited from earlier work

T1 sequence (Q5DUB1 whole entry): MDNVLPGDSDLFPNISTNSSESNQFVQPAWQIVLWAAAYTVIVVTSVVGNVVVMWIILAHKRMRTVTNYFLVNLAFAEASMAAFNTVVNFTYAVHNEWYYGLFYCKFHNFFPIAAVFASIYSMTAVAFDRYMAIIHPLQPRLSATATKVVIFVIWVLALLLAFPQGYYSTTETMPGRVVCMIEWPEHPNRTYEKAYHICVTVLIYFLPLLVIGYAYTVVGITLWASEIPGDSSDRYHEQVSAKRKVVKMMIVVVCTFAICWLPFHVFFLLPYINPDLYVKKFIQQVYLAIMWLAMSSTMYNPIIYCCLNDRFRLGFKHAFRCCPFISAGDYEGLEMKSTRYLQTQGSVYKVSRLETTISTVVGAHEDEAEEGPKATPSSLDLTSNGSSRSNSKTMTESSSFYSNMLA

SMILES | time after administration up to which foot-tapping behavior is inhibited [1] | Total No. Emetic Episodes [2] | dogs in which occurrence of vomiting was reduced as compared to placebo [3]
C[C@@H](O[C@H]1OCCN(Cc2n[nH]c(=O)[nH]2)[C@H]1c1ccc(F)cc1)c1cc(C(F)(F)F)cc(C(F)(F)F)c1 [Aprepitant, reference compound] | up to 24 hours | 1** | 
COc1ccc(C(C)(C)C)cc1CN[C@H]1C2CCN(CC2)[C@H]1C(c1ccccc1)c1ccccc1 [Maropitant] |  |  | over 75%
